We go through 1 compound from paper PMC2394453 (British Journal of Cancer, 2003).

This data set can be described thus: Plasma pharmacokinetics of simvastatin and simvastatin hydroxy acid after oral simvastatin alone and combined with imatinib in CML patients (LC/MS/MS). The settings on record: for t1/2: simvastatin in plasma, mean±s.d., in h.

By Tmax is commonly meant the time from dosing to the highest level. The Vd/F is the apparent distribution volume after extravascular dosing. Usually half-life stands for the time needed for the level to fall by half in the phase considered. As for `CCC(C)(C)C(=O)O[C@H]1C[C@@H](C)C=C2C=C[C@H](C)[C@H](CC[C@@H]3C[C@@H](O)CC(=O)O3)[C@H]21` [Simvastatin], where the note is “both, human, plasma, po, 40 mg”, the Tmax came out at 1 h, the Vd/F turned out to be 3120 ± 2750 L and the half-life was 1.4 h. Also, under “simvastatin 40 mg coadministered with imatinib 400 mg, P<0.001”, the “mean reduction of total-body clearance from plasma (CL/F)” value is given as 70%. The t1/2 (40 mg simvastatin oral alone (day 1)) came to 1.4±0.8. In addition, under “40 mg simvastatin oral plus 400 mg imatinib oral (day 8)”, the t1/2 stood at 2.7±1.3.
